This is an account of results in patent US4061767A, “Cyano acetic acid anilide derivatives, process for their manufacture and compositions containing these compounds” (Hoechst Aktiengesellschaft, priority 1975, dated 1977).

One data set relates to writhing. Kind of data set: writhing test on mice (analgesic effect). The data set is classed as in vivo. To be noted: Mus musculus, po, per os, dosis that reduces the number of writhings by 50% vs control. The protocol: (§1) The ED50 levels were determined graphically on probability paper. In the writhing test, the ED50 is defined to be the dosis of active ingredient that reduces the number of writhings by 50% as compared with a control group. In the adjuvant arthritis test, the effect was judged by observing the inhibition in the secondary lesions, which the animals inflicted to their ears, paws and tails, on the 17th day after the administration of the active substance compositions had started, in comparison with a control group. ED50 is considered the dosis that reduces these lesions by 50% as compared to those of the control group.
On the technique in general: An intraperitoneal irritant provokes the stretching counted in writhing tests.

In a further data set the test system is adjuvant arthritis. Kind of data set: adjuvant arthritis in rats (anti-inflammatory effect). As to conditions: Rattus norvegicus, po, 408 h, per os, 50% reduction of secondary lesions on the 17th day vs control. Format: in vivo. The protocol: as §1
Data set [1] is described as follows: in vivo. As to conditions: mouse, po, per os, N.M.R.I. mice, observation time 7 days.
Data set [2] can be described thus: in vivo. To be noted: rat, po, per os, observation time 7 days.
Source text: ^1) Limits of confidence for p = 0.05 in brackets
^2) Sprague-Dawley rats used as test animals
Data set [3] is described as follows: in vivo. Also noted: species or system male rats of a Sprague-Dawley strain. As to conditions: rat, po. The protocol:
To examine the ulcerogenic activity, the substances to be tested were orally administered to male rats of a Sprague-Dawley strain, that had been kept unfed for 18 hours, and 24 hours after administration, the gastrointestinal tract of the animals was inspected for ulcers.

In the case of `CC(O)=C(C#N)C(=O)Nc1cccc(Cl)c1` [No. 2], the ED50 (in general, the midpoint of the dose-response relation) in the data set on writhing is about 25 mg/kg; with adjuvant arthritis, 22 mg/kg. Also, the LD50 (commonly the dose expected to kill half of the subjects tested) at 168 h in the data set “in vivo [1]” turned out to be 585 mg/kg; in the data set “in vivo [2]” (female Wistar-Lewis rats), 445 mg/kg. Besides, the no observed adverse effect level (NOAEL) (in general, the highest dose or exposure tested at which no adverse effect was seen) at 24 h in the data set “in vivo [3]” was 200 mg/kg.
On to `CCCCC1C(=O)N(c2ccccc2)N(c2ccccc2)C1=O` [Phenylbutazone, phenylbutazone, reference compound], for which the ED50 in the data set on writhing is 60 to 100 mg/kg; in the data set with adjuvant arthritis, 37 mg/kg. This compound also showed an NOAEL at 24 h in the data set “in vivo [3]” of 63 mg/kg.
On to `CC(O)=C(C#N)C(=O)Nc1cccc(C(F)(F)F)c1` [compound 11], for which the ED50 came out at 25 mg/kg in the data set with writhing and 28 mg/kg with adjuvant arthritis. Besides, the values for the 50% lethal dose (LD50) at 168 h in “in vivo [1]” and in “in vivo [2]” (Sprague-Dawley rats used as test animals (footnote 2)) were 660 mg/kg and 670 mg/kg, respectively. This compound also registered an NOAEL at 24 h in “in vivo [3]” of 100 mg/kg.
